From patent EP0569777A2 (Bayer Corporation, priority 1992, dated 1993)
Where a SMILES comes first, the peptide text is derived from it. [ ]: non-standard residue; d: D form. The star is where a group is joined. Sta = CC(C)C[C@H](N)[C@@H](O)CC(=O)O; Isovaleryl = CC(C)CC(=O)*

Test system: human brain P-2 derived aprotinin binding pool Y protease (chymotryptic-like serine protease)
Assay: Immunoblot assay of APP degradation by the pool Y serine protease
Assay type: biochemical
Conditions: 400 uM pepstatin in methanol; pool Y 14 ug/ml, APP 35 nM, Mes pH 6.5, 4 hr; Figure 18a
Protocol: Reactions were initiated at 37°C by enzyme addition to achieve the following initial component concentrations in a 16 ul volume: pool Y # 3-5 (14 ug/ml) after purification on a superdex 75 column, APP (35 nM), in 30 mM Mes buffer pH 6.5. Reactions were terminated by addition of 7.5 ul of 3X sample buffer. Immunoblots were developed using the rabbit antiserum to the APP C-terminal domain according to example 8. […] The following controls were also run: no inhibitor (lane 12), ethanol (lane 3), methanol (lane 5), pool Y only (lane 2), APP only at time zero (lane 13) and 4 hr (lane 14). Lanes 1 and 7 respectively show prestained Mr markers and the C-100 standard. Panel (b) 1.8 uM alpha-1-antichymotrypsin (lane 2), 156 uM TLCK (lane 3), 46 uM chymotrypsin inhibitor I (lane 4), 119 uM chymotrypsin inhibitor II (lane 5), 4 uM alpha-2-antiplasmin (lane 6), 51 uM alpha-1-antitrypsin (lane 7), 98 uM chymostatin administered in DMSO (lane 10), 153 uM methanolic TPCK (lane 12). Controls included: no inhibitor (lane 8), DMSO (lane 11), and methanol (lane 13). Pre-stained molecular weight markers and C-100 standards were applied to lanes 1 and 9 respectively. Incubation times of 4 and 2 hr were used in panels a) and b) respectively.
• i) Sub-cellular fractionation. This was performed essentially as described in Method 1, above. • ii) Solubilization. This was performed essentially as described in Method 1, above. • iii) Aprotinin-sepharose chromatography. Soluble (230 mg), P-2 (216 mg) or microsomal fraction (47 mg) described above was applied to a column of aprotinin sepharose (Sigma, catalog # 42268, 1.5 X 10 cm), previously equilibrated with 20 mM Tris HCl buffer pH 7.0. Once loaded the column was washed with equilibration buffer (100 ml), and then eluted with 60 ml of 50 mM sodium acetate buffer pH 5.0 containing 500 mM sodium chloride. The flow rate was 1.0 ml/min throughout. Eluted fractions (4 ml) were monitored at 280 nm, analysed using the Bradford protein assay, and examined for APP C-terminal processing activity as described in Example 8, using recombinant APP derived by expression in a baculo virus system. […] Active fractions from the purification of the P-2 fraction on aprotinin-sepharose were pooled, dialyzed against 50 mM Tris-HCl pH 7.5 and applied to a mono-Q column (HR 5/5), previously equilibrated with dialysis buffer. Once loaded, the column was eluted essentially as described in Method 1. above. Active fractions (2 ml), were monitored for A 280 nm, total protein (Bradford assay), and for their capacity for baculo virus derived APP C-terminal processing. […] Pools X, Y, and Z were each concentrated to either 2 ml (pool X and Y) or 3.6 ml (pool z) and separately applied to a Superdex 75 column (Pharmacia, Piscataway NJ.) previously equilibrated with 50 mM Tris-HCl pH 7.5, containing 150 mM sodium chloride. Once loaded, the column was eluted with equilibration buffer. Chromatography was performed at a flow rate of 1.0 ml/min throughout. Fractions (1 ml) were monitored for A 280 nm, total protein (Bradford assay) and for C-terminal processing of baculo expressed APP. The gel filtration was calibrated by chromatography of each of the following standard proteins: Thyroglobulin (670 kDa), bovine gamma globulin (158 kDa), ovalbumin (44 kDa), myoglobin (17.5 kDa) and vitamin B 12 (1.35 kDa).

Question: How did the “Inhibitor sensitivity of the pool Y protease (APP degradation)” value turn out when `CC(C)CC(=O)N[C@H](C(=O)N[C@H](C(=O)N[C@@H](CC(C)C)[C@@H](O)CC(=O)N[C@@H](C)C(=O)N[C@@H](CC(C)C)[C@@H](O)CC(=O)O)C(C)C)C(C)C` [pepstatin A] (Isovaleryl-VV[Sta]A[Sta]-OH) was run?
Answer: unaffected
